From ChEMBL document CHEMBL1148087, “Structure and absolute configuration of palmonine F, a new eunicellin-based diterpene from the gorgonian Eunicella verrucosa” (1994)
Converted amounts (≈) assume the structure as drawn.

Legend:
Type in all cases: functional
Settings in all cases: read-out: ED50 (the source's name)
[1] = system: P388; experiment: Cytotoxicity against mouse P388 cells
[2] = system: A549; experiment: Cytotoxicity against human A549 cells
[3] = system: HT-29; experiment: Cytotoxicity against human HT-29 cells
[4] = system: SK-MEL-28; experiment: Cytotoxicity against human SK-MEL-28 cells

| Compound | EC50 [1] [µg/mL] | EC50 [2] [µg/mL] | EC50 [3] [µg/mL] | EC50 [4] [µg/mL] |
| --- | --- | --- | --- | --- |
| CO[C@H]1CC[C@@](C)(OC(C)=O)[C@@H]2O[C@H](C[C@]1(C)O)[C@@H]1[C@H]2[C@@H](C(C)C)CC[C@@]1(C)OC(C)=O [PALMONINE A] | > 10 | > 10 | > 10 | > 10 |
| C=C1C[C@H]2O[C@H]([C@H]3[C@@H]2[C@](C)(OC(C)=O)CC[C@@H]3C(C)C)[C@](C)(OC(C)=O)CC[C@@H]1OC(C)=O [PALMONINE B] | 5 (≈ 10.8 µM) | – | – | 5 (≈ 10.8 µM) |
| CO[C@H]1CC[C@@](C)(OC(C)=O)[C@@H]2O[C@H](C[C@]1(C)O)[C@@H]1[C@H]2[C@@H](C(C)C)CC[C@@]1(C)O [PALMONINE C] | > 10 | > 10 | > 10 | > 10 |
| C=C1C[C@H]2O[C@H]([C@H]3[C@@H]2[C@](C)(OC(C)=O)CC[C@@H]3C(C)C)[C@](C)(OC(C)=O)CCC1=O [PALMONINE D] | > 10 | > 10 | > 10 | > 10 |
| CC(=O)O[C@]1(C)CC[C@H](C(C)C)[C@@H]2[C@H]1[C@H]1/C=C(/C)C(=O)CC[C@@](C)(OC(C)=O)[C@@H]2O1 [PALMONINE E] | > 10 | > 10 | > 10 | > 10 |
| C=C1C[C@H]2O[C@H]([C@H]3[C@@H]2[C@](C)(OC(C)=O)CC[C@@H]3C(C)C)[C@](C)(OC(C)=O)CC[C@@H]1O [PALMONINE F] | > 10 | > 10 | > 10 | > 10 |
